Experimental data reported in patent publication US9850283B2, “Macrocyclic inhibitors of the PD-1/PD-L1 and CD80(B7-1)/PD-L1 protein/protein interactions” (BRISTOL-MYERS SQUIBB COMPANY, priority 2013, dated 2017).
pIC50: −log10 of the molar value. Read-outs that look alike come from different tables or passages of the source. Positions of bridges follow the written chain, without caps; N, C: chain ends. Non-standard residues stand in square brackets, D forms with d. Residues, ends and D or L forms follow the SMILES beside them. Hyp = O=C(O)[C@@H]1C[C@@H](O)CN1; NMeNle = CCCC[C@H](NC)C(=O)O; NMeA = CN[C@@H](C)C(=O)O; Orn = NCCC[C@H](N)C(=O)O; Dab = NCC[C@H](N)C(=O)O; Dap = NC[C@H](N)C(=O)O

How the values were obtained:
[1] = target: T1, Human PD-L1/PD-1 (Homo sapiens, UniProt Q9NZQ7); test: HTRF PD-1-Ig/PD-L1-His binding assay (human PD-L1)
T1 construct: made in house; host or cells: HEK293T
Outline: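 Soluble PD-1-Ig binding to PD-L1-His measured by HTRF in dPBS with 0.1% BSA and 0.05% Tween-20. Detection used europium cryptate anti-Ig antibody (1 nM final) and APC anti-His antibody (20 nM final) added on top of the binding reaction.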

[2] = target: T2, LK35.2-hPD-L1 cells / PE-labeled PD-1-Ig (Homo sapiens, UniProt Q9NZQ7); test: LK35.2-hPD-L1 cell binding high-content screening assay; assay type: cell-based; settings: cell binding assay, cell line not given
T2 construct: expressed in transfected cells; host or cells: LK35.2 mouse B cell line
Outline: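 Compound effect on PD-1/PD-L1 binding is measured by imaging cell-associated phycoerythrin signal. Human PD-1-Ig (PE on Ig tag, 1 nM final) is applied with compound to a murine B cell line overexpressing human PD-L1 for 1 h at 37 °C in serum-containing RPMI.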

[3] = cluster symbol, read-out: HTRF IC50 cluster
[4] = cluster symbol, read-out: CBA IC50 cluster

T1 sequence (Q9NZQ7 with tags, fused parts or gaps): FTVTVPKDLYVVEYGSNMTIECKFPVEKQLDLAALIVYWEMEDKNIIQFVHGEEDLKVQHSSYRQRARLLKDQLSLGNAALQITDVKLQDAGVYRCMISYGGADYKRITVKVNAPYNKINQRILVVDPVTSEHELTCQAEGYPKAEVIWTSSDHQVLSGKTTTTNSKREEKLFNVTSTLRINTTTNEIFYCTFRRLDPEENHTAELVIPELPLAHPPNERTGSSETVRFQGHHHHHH
T2 sequence (Q9NZQ7 19-290): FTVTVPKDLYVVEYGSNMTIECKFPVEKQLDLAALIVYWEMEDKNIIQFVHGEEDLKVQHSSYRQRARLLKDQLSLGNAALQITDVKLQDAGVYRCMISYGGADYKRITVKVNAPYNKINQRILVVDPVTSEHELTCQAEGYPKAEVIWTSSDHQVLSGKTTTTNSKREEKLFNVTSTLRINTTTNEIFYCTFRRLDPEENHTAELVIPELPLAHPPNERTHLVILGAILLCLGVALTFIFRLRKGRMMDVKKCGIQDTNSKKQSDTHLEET

Row | pIC50 [1, 3] | pIC50 [2, 4] | pIC50 ([1]; value given instead of cluster, read-out: HTRF IC50 value) | pIC50 ([2]; value given instead of cluster, read-out: CBA IC50 value) | Compound
1 | 8.17 to 9.41 | 8.33 to 9.80 | – | – | CCCC[C@H]1C(=O)N(C)[C@@H](CCCC)C(=O)N[C@@H](CC(C)C)C(=O)N[C@H](C(=O)NCC(N)=O)CSCC(=O)N[C@@H](Cc2ccc(O)cc2)C(=O)N(C)[C@@H](C)C(=O)N[C@@H](CC(N)=O)C(=O)N2CCC[C@H]2C(=O)N[C@@H](CO)C(=O)N[C@@H](CCC(N)=O)C(=O)N2C[C@H](O)C[C@H]2C(=O)N[C@@H](Cc2c[nH]c3ccccc23)C(=O)N[C@@H](CO)C(=O)N[C@@H](Cc2c[nH]c3ccccc23)C(=O)N1C [Example 5115] ({CH2CO}-Y[NMeA]NPSQ[Hyp]WSW[NMeNle][NMeNle]LCG-NH2; thioether N-14)
2 | 8.17 to 9.41 | 7.14 to 8.32 | – | – | CCCC[C@H]1C(=O)N(C)[C@@H](CCCC)C(=O)N[C@@H](CO)C(=O)N[C@H](C(=O)NCC(N)=O)CSCC(=O)N[C@@H](Cc2ccc(O)cc2)C(=O)N(C)[C@@H](C)C(=O)N[C@@H](CO)C(=O)N2CCC[C@H]2C(=O)N[C@@H](CO)C(=O)N[C@@H](CC(C)C)C(=O)N2C[C@H](O)C[C@H]2C(=O)N[C@@H](Cc2c[nH]c3ccccc23)C(=O)N[C@@H](CO)C(=O)N[C@@H](Cc2c[nH]c3ccccc23)C(=O)N1C [Example 5116] ({CH2CO}-Y[NMeA]SPSL[Hyp]WSW[NMeNle][NMeNle]SCG-NH2; thioether N-14)
3 | 8.17 to 9.41 | 8.33 to 9.80 | – | – | CCCC[C@H]1C(=O)N(C)[C@@H](CCCC)C(=O)N[C@@H](CO)C(=O)N[C@H](C(=O)NCC(N)=O)CSCC(=O)N[C@@H](Cc2ccc(O)cc2)C(=O)N(C)[C@@H](C)C(=O)N[C@@H](CC(N)=O)C(=O)N2CCC[C@H]2C(=O)N[C@@H](CO)C(=O)N[C@@H](CC(C)C)C(=O)N2C[C@H](O)C[C@H]2C(=O)N[C@@H](Cc2c[nH]c3ccccc23)C(=O)N[C@@H](CO)C(=O)N[C@@H](Cc2c[nH]c3ccccc23)C(=O)N1C [Example 5118] ({CH2CO}-Y[NMeA]NPSL[Hyp]WSW[NMeNle][NMeNle]SCG-NH2; thioether N-14)
4 | 8.17 to 9.41 | 7.14 to 8.32 | – | – | CCCC[C@H]1C(=O)N(C)[C@@H](CCCC)C(=O)N[C@@H](CO)C(=O)N[C@H](C(=O)NCC(N)=O)CSCC(=O)N[C@@H](Cc2ccc(O)cc2)C(=O)N(C)[C@@H](C)C(=O)N[C@@H](CCN)C(=O)N2CCC[C@H]2C(=O)N[C@@H](CO)C(=O)N[C@@H](CCC(=O)O)C(=O)N2C[C@H](O)C[C@H]2C(=O)N[C@@H](Cc2c[nH]c3ccccc23)C(=O)N[C@@H](CO)C(=O)N[C@@H](Cc2c[nH]c3ccccc23)C(=O)N1C [Example 5119] ({CH2CO}-Y[NMeA][Dab]PSE[Hyp]WSW[NMeNle][NMeNle]SCG-NH2; thioether N-14)
5 | 7.52 to 8.17 | 7.14 to 8.32 | – | – | CCCC[C@H]1C(=O)N(C)[C@@H](CCCC)C(=O)N[C@@H](CO)C(=O)N[C@H](C(=O)NCC(N)=O)CSCC(=O)N[C@@H](Cc2ccc(O)cc2)C(=O)N(C)[C@@H](C)C(=O)N[C@@H](CC(N)=O)C(=O)N2CCC[C@H]2C(=O)N[C@@H](Cc2c[nH]cn2)C(=O)N[C@@H](CCC(N)=O)C(=O)N2C[C@H](O)C[C@H]2C(=O)N[C@@H](Cc2c[nH]c3ccccc23)C(=O)N[C@@H](CO)C(=O)N[C@@H](Cc2c[nH]c3ccccc23)C(=O)N1C [Example 5121] ({CH2CO}-Y[NMeA]NPHQ[Hyp]WSW[NMeNle][NMeNle]SCG-NH2; thioether N-14)

Further lines, the compound ahead of its results:

Row | Compound | pIC50 [1, 3] | pIC50 [2, 4] | pIC50 ([1]; value given instead of cluster, read-out: HTRF IC50 value) | pIC50 ([2]; value given instead of cluster, read-out: CBA IC50 value)
6 | CCCC[C@H]1C(=O)N(C)[C@@H](CCCC)C(=O)N[C@@H](CCCN)C(=O)N[C@H](C(=O)NCC(N)=O)CSCC(=O)N[C@@H](Cc2ccc(O)cc2)C(=O)N(C)[C@@H](C)C(=O)N[C@@H](CC(=O)O)C(=O)N2CCC[C@H]2C(=O)N[C@@H](Cc2c[nH]cn2)C(=O)N[C@@H](CCC(N)=O)C(=O)N2C[C@H](O)C[C@H]2C(=O)N[C@@H](Cc2c[nH]c3ccccc23)C(=O)N[C@@H](CO)C(=O)N[C@@H](Cc2c[nH]c3ccccc23)C(=O)N1C [Example 5114] ({CH2CO}-Y[NMeA]DPHQ[Hyp]WSW[NMeNle][NMeNle][Orn]CG-NH2; thioether N-14) | 8.17 to 9.41 | 8.33 to 9.80 | – | –
7 | CCCC[C@H]1C(=O)N(C)[C@@H](CCCC)C(=O)N[C@@H](CCCCN)C(=O)N[C@H](C(=O)NCC(N)=O)CSCC(=O)N[C@@H](Cc2ccc(O)cc2)C(=O)N(C)[C@@H](C)C(=O)N[C@@H](CC(=O)O)C(=O)N2CCC[C@H]2C(=O)N[C@@H](Cc2c[nH]cn2)C(=O)N[C@@H](CCC(N)=O)C(=O)N2C[C@H](O)C[C@H]2C(=O)N[C@@H](Cc2c[nH]c3ccccc23)C(=O)N[C@@H](CO)C(=O)N[C@@H](Cc2c[nH]c3ccccc23)C(=O)N1C [Example 5120] ({CH2CO}-Y[NMeA]DPHQ[Hyp]WSW[NMeNle][NMeNle]KCG-NH2; thioether N-14) | 8.17 to 9.41 | 8.33 to 9.80 | – | –
8 | CCCC[C@H]1C(=O)N(C)[C@@H](CCCC)C(=O)N[C@@H](CC(C)C)C(=O)N[C@H](C(=O)NCC(N)=O)CSCC(=O)N[C@@H](Cc2ccc(O)cc2)C(=O)N(C)[C@@H](C)C(=O)N[C@@H](CC(N)=O)C(=O)N2CCC[C@H]2C(=O)N[C@@H](Cc2c[nH]cn2)C(=O)NCC(=O)N2C[C@H](O)C[C@H]2C(=O)N[C@@H](Cc2c[nH]c3ccccc23)C(=O)N[C@@H](CO)C(=O)N[C@@H](Cc2c[nH]c3ccccc23)C(=O)N1C [Example 5122] ({CH2CO}-Y[NMeA]NPHG[Hyp]WSW[NMeNle][NMeNle]LCG-NH2; thioether N-14) | – | – | 7.46 | 6.87
9 | CCCC[C@H]1C(=O)N(C)[C@@H](CCCC)C(=O)N[C@@H](CCCNC(=N)N)C(=O)N[C@H](C(=O)NCC(N)=O)CSCC(=O)N[C@@H](Cc2ccc(O)cc2)C(=O)N(C)[C@@H](C)C(=O)N[C@@H](CN)C(=O)N2CCC[C@H]2C(=O)N[C@@H](Cc2c[nH]cn2)C(=O)N[C@@H](CCC(=O)O)C(=O)N2C[C@H](O)C[C@H]2C(=O)N[C@@H](Cc2c[nH]c3ccccc23)C(=O)N[C@@H](CO)C(=O)N[C@@H](Cc2c[nH]c3ccccc23)C(=O)N1C [Example 5123] ({CH2CO}-Y[NMeA][Dap]PHE[Hyp]WSW[NMeNle][NMeNle]RCG-NH2; thioether N-14) | 7.52 to 8.17 | 7.14 to 8.32 | – | –
10 | CCCC[C@H]1C(=O)N(C)[C@@H](CCCC)C(=O)N[C@@H](CCCNC(=N)N)C(=O)N[C@H](C(=O)NCC(N)=O)CSCC(=O)N[C@@H](Cc2ccc(O)cc2)C(=O)N(C)[C@@H](C)C(=O)N[C@@H](CCCCN)C(=O)N2CCC[C@H]2C(=O)N[C@@H](Cc2c[nH]cn2)C(=O)N[C@@H](CCC(=O)O)C(=O)N2C[C@H](O)C[C@H]2C(=O)N[C@@H](Cc2c[nH]c3ccccc23)C(=O)N[C@@H](CO)C(=O)N[C@@H](Cc2c[nH]c3ccccc23)C(=O)N1C [Example 5124] ({CH2CO}-Y[NMeA]KPHE[Hyp]WSW[NMeNle][NMeNle]RCG-NH2; thioether N-14) | 8.17 to 9.41 | 8.33 to 9.80 | – | –
11 | CCCC[C@H]1C(=O)N(C)[C@@H](CCCC)C(=O)NCC(=O)N[C@H](C(=O)NCC(N)=O)CSCC(=O)N[C@@H](Cc2ccc(O)cc2)C(=O)N(C)[C@@H](C)C(=O)N[C@@H](CC(N)=O)C(=O)N2CCC[C@H]2C(=O)N[C@@H](Cc2c[nH]cn2)C(=O)N[C@@H](CCC(N)=O)C(=O)N2C[C@H](O)C[C@H]2C(=O)N[C@@H](Cc2c[nH]c3ccccc23)C(=O)N[C@@H](CO)C(=O)N[C@@H](Cc2c[nH]c3ccccc23)C(=O)N1C [Example 5125] ({CH2CO}-Y[NMeA]NPHQ[Hyp]WSW[NMeNle][NMeNle]GCG-NH2; thioether N-14) | 8.17 to 9.41 | 7.14 to 8.32 | – | –
